The text below walks through data of US20060052413A1, “Novel piperidine derivatives as modulators of chemokine receptor ccr5” (priority 2002, published 2006).

SMILES strings stand for the structures.

The target in this experiment is recombinant human CCR5 receptor (Homo sapiens, UniProt P51681). Nature of the experiment: MIP-1α radioligand binding assay (scintillation proximity), CHO cell membranes. To be noted: displacement of 0.1 nM iodinated MIP-1α; negative log10 of IC50; average if tested more than once. The method, then: The ability of compounds to inhibit the binding of MIP-1α was assessed by an in vitro radioligand binding assay. Membranes were prepared from Chinese hamster ovary cells which expressed the recombinant human CCR5 receptor. These membranes were incubated with 0.1 nM iodinated MIP-1α, scintillation proximity beads and various concentrations of the compounds of the invention in 96-well plates. The amount of iodinated MIP-1α bound to the receptor was determined by scintillation counting. Competition curves were obtained for compounds and the concentration of compound which displaced 50% of bound iodinated MIP-1α was calculated (IC50).
In Table II the results are presented as Pic50 values. A Pic50 value is the negative log (to base 10) of the IC50 result, so an IC50 of 1 μM (that is 1×10^−6M) gives a Pic50 of 6. If a compound was tested more than once then the data below is an average of the probative tests results.
On the technique in general: Scintillation proximity formats need no separation of bound from free tracer.

Chain of recombinant human CCR5 receptor (P51681 whole entry): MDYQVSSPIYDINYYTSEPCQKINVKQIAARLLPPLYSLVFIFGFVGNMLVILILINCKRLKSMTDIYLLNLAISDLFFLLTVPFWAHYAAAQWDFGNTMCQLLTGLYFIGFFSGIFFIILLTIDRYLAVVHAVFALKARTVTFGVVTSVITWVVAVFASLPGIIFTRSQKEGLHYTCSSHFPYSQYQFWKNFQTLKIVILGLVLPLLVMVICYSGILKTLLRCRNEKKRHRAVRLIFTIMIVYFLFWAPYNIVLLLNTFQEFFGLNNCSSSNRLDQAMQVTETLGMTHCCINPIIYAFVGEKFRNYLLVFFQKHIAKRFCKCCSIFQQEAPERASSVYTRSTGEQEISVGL

For the compound `CCS(=O)(=O)N1CCN(C(CCN2CCC(CCCc3ccccc3)CC2)c2ccccc2)CC1` (stereo not shown) [Compound 3], the IC50 was 97.7 nM.

In general, IC50 refers to the concentration that gives 50% inhibition.
